Results as given in patent US20230303539A1, “IMMUNOREGULATORY COMPOUND AND ANTITUMOR APPLICATION THEREOF” (SHANGHAITECH UNIVERSITY, priority 2020, published 2023).

Legend:
Assay type in all cases: cell-based
[1] = system: human B-cell lymphoma cell line DOHH2; assay: Cell proliferation inhibition (CCK-8) in DOHH2; conditions: DOHH-2, DOHH2 cells, 72 h treatment, read-out: IC50 (half inhibitory concentration) in tumor cells, DOHH2
Excerpt: (§1) The tested cell lines used were: Multiple myeloma cell line MM.1S, human Burkitt's lymphoma cell line Daudi, human acute promyelocytic leukemia cell line NB4, human mantle cell lymphoma cell line JEKO-1, human B-cell lymphoma cell line SU-DHL-4, human mantle cell lymphoma cell line Mino, human diffuse large B-cell lymphoma cell line TMD8, human B-cell lymphoma cell line DOHH2, PBMCs cell and human diffuse large B-cell lymphoma cell line WSU-DLCL2, which were purchased from ATCC (American type Culture Collection) or Cell Bank/Stem Cell Bank, Chinese Academy of Sciences. The medium was RPMI1640 supplemented with 10% FBS (fetal calf serum) and 1% Penicillin-Streptomycin. […]
(§2) IC50 values of the compounds of the present disclosure (including the compounds in Table 1 and compounds of examples 1-23) were measured using Cell Titer Blue, Cell Titer GLO, or WST reagent from Promega Company. […] After the cells were treated with the compounds of the present disclosure to be tested for 72 h, cell viability was determined after adding the cell viability detection kit listed above according to the reagent operating instructions. […] The growth inhibition of the compounds of the present disclosure on cells was plotted by Prism Graphpad software, and the IC50 values of the compounds of the present disclosure were calculated therefrom. […]

[2] = system: multiple myeloma cancer cells MM.1S; assay: Cell proliferation inhibition (cell viability, CCK-8) in MM.1S; conditions: Homo sapiens, MM1.S; MM.1S cells, 72 h treatment, CCK-8 cell viability
Excerpt: (§3) The tested cell lines used were: Multiple myeloma cell line MM.1S, human Burkitt's lymphoma cell line Daudi, human acute promyelocytic leukemia cell line NB4, human mantle cell lymphoma cell line JEKO-1, human B-cell lymphoma cell line SU-DHL-4, human mantle cell lymphoma cell line Mino, human diffuse large B-cell lymphoma cell line TMD8, human B-cell lymphoma cell line DOHH2, PBMCs cell and human diffuse large B-cell lymphoma cell line WSU-DLCL2, which were purchased from ATCC (American type Culture Collection) or Cell Bank/Stem Cell Bank, Chinese Academy of Sciences. The medium was RPMI1640 supplemented with 10% FBS (fetal calf serum) and 1% Penicillin-Streptomycin. The cells used were identified as correct cells by STR cells, and were negative for mycoplasma through routine inspections.
(§4) IC50 values of the compounds of the present disclosure (including the compounds in Table 1 and compounds of examples 1-23) were measured using Cell Titer Blue, Cell Titer GLO, or WST reagent from Promega Company. Assay details are as follows: Cells were seeded in 100 μL RPMI1640 medium containing serum at a density of 15,000 cells/well. After 24 h, the inoculated cells were treated with diluted commercial inhibitor and the compounds of the present disclosure to be tested after serial dilution. After the cells were treated with the compounds of the present disclosure to be tested for 72 h, cell viability was determined after adding the cell viability detection kit listed above according to the reagent operating instructions. The negative control was DMSO, and the positive control was a commercial inhibitor, both of which were used to treat the cells through the same method as that of the compounds of the present disclosure. The growth inhibition of the compounds of the present disclosure on cells was plotted by Prism Graphpad software, and the IC50 values of the compounds of the present disclosure were calculated therefrom.
(§5) We tested the activities of the compounds of the present invention (including the compounds in Table 1 and Examples 1-23 compounds) in multiple myeloma cancer cells MM.1S cell and B lymphoma cells Daudi through a dose-dependent manner. The cells were treated with the compounds of the present invention at 10 different successively decreasing concentrations (starting at the highest concentration of […]; 5-fold serial dilutions) for 72 h, and then the cell viability determination was performed in accordance with CCK-8 reagent operating instructions.

[3] = system: human mantle cell lymphoma cell line Mino; assay: Cell proliferation inhibition (CCK-8) in Mino; conditions: MINO cells, 72 h treatment, read-out: IC50 (half inhibitory concentration) in tumor cells, MINO
Excerpt: as §1, §2

[4] = system: B lymphoma cells Daudi; assay: Cell proliferation inhibition (cell viability, CCK-8) in Daudi; conditions: Homo sapiens, 72 h treatment, CCK-8 cell viability
Excerpt: as §3, §4, §5

[5] = system: human diffuse large B-cell lymphoma cell line WSU-DLCL2; assay: Cell proliferation inhibition (CCK-8) in WSU-DLCL2; conditions: WSUDLCL2, WSU-DLCL2 cells, 72 h treatment, read-out: IC50 (half inhibitory concentration) in tumor cells, WSU-DLCL2
Excerpt: as §1, §2

[6] = system: human diffuse large B-cell lymphoma cell line TMD8; assay: Cell proliferation inhibition (CCK-8) in TMD8; conditions: TMD8 cells, 72 h treatment, read-out: IC50 (half inhibitory concentration) in tumor cells, TMD8
Excerpt: as §1, §2

[7] = system: TNF-α; assay: TNF-α inhibition in LPS-stimulated PBMC cells (ELISA); conditions: LPS 1 ng/ml, 18-20 h, FIG. 2
Protocol: PBMC cells were cultured at 37° C. in 5% CO2 atmosphere, and then seeded in 96-well plates at […]. […] Cells were incubated in medium with or without compounds for 1 h, then stimulated with lipopolysaccharide (LPS; 1 ng/ml), and continually cultured for 18-20 h. Then, the supernatant was collected, diluted with serum-free medium, and tested for TNF-α level by ELISA kit. IC50 was then calculated by Graphpad Prism 7.0. Down-regulation of TNF-α expression is an important way of anti-tumor effect of immunomodulators.

Cc1nc2cccc(N)c2c(=O)n1C1CCC(=O)NC1=O (stereo not drawn) [CC-122, Avadomide, reference compound]
IC50 [1]: > 1000 nM | IC50 [2]: 21.8 ± 4.3 nM | IC50 [3]: 55 nM | IC50 [4]: 158 ± 9.48 nM | IC50 [5]: > 1000 nM | IC50 [6]: 492 nM | inhibition of the level of TNF-α (in words) [7]: the level of TNF-α was inhibited in a dose-dependent manner

Cc1nc2cccc(NCc3ccc(CN4CCOCC4)cc3)c2c(=O)n1C1CCC(=O)NC1=O (stereo not drawn) [SIAIS264067, 3-(2-methyl-5-((4-(morpholinomethyl)benzyl)amino)-4-oxoquinazolin-3(4H)-yl)piperidine-2,6-dione]
IC50 [2]: 8.59 ± 1.32 nM | IC50 [4]: 54.6 ± 7.35 nM | inhibition of the level of TNF-α (in words) [7]: better inhibitory activities than CC-122

Cc1nc2cccc(NCCc3ccccc3)c2c(=O)n1C1CCC(=O)NC1=O (stereo not drawn) [SIAIS264103, 3-(2-methyl-4-oxo-5-(phenethylamino)quinazolin-3(4H)-yl)piperidine-2,6-dione]
IC50 [2]: 87.3 ± 5.18 nM | IC50 [4]: 826 ± 37.3 nM

Cc1nc2cccc(NCc3ccccc3F)c2c(=O)n1C1CCC(=O)NC1=O (stereo not drawn) [SIAIS264123, 3-(5-((2-fluorobenzyl)amino)-2-methyl-4-oxoquinazolin-3(4H)-yl)piperidine-2,6-dione]
IC50 [2]: 57.5 ± 11.5 nM | IC50 [4]: 322 ± 22.1 nM

Cc1nc2cccc(NCc3ccc(CNC45CC6CC(CC(C6)C4)C5)cc3)c2c(=O)n1C1CCC(=O)NC1=O [SIAIS264156, 3-(5-((4-(((1R,3R,5S)-adamantan-1-ylamino)methyl)benzyl)amino)-2-methyl-4-oxoquinazolin-3(4H)-yl)piperidine-2,6-dione]
IC50 [2]: 9.64 ± 0.83 nM | IC50 [4]: 44.8 ± 19.6 nM

Cc1nc2cccc(NCc3ccc(CNC4C5CC6CC(C5)CC4C6)cc3)c2c(=O)n1C1CCC(=O)NC1=O [SIAIS264172, 3-(5-((4-(((1R,2s,3S,5r)-adamantan-2-ylamino)methyl)benzyl)amino)-2-methyl-4-oxoquinazolin-3(4H)-yl)piperidine-2,6-dione]
IC50 [2]: 2.52 ± 0.68 nM

Cc1nc2cccc(NCc3ccc4c(c3)OCO4)c2c(=O)n1C1CCC(=O)NC1=O (stereo not drawn) [SIAIS264177, 3-(5-((benzo[d][1,3]dioxol-5-ylmethyl)amino)-2-methyl-4-oxoquinazolin-3(4H)-yl)piperidine-2,6-dione]
IC50 [2]: 34.7 ± 5.29 nM | IC50 [4]: 222 ± 40.9 nM

Cc1nc2cccc(NCc3ccc(CO)cc3)c2c(=O)n1C1CCC(=O)NC1=O (stereo not drawn) [SIAIS313055, 3-(5-((4-(hydroxymethyl)benzyl)amino)-2-methyl-4-oxoquinazolin-3(4H)-yl)piperidine-2,6-dione]
IC50 [2]: 36.4 ± 6.74 nM | IC50 [4]: 166 ± 14.7 nM

Cc1nc2cccc(NCC3CCC(C(=O)NC45CC6CC(CC(C6)C4)C5)CC3)c2c(=O)n1C1CCC(=O)NC1=O (stereo not drawn) [SIAIS313068, N-((3s,5s,7s)-adamantan-1-yl)-4-(((3-(2,6-dioxopiperidin-3-yl)-2-methyl-4-oxo-3,4-dihydroquinazolin-5-yl)amino)methyl)cyclohexanecarboxamide]
IC50 [2]: 83.7 ± 2.79 nM | IC50 [4]: 492 ± 33.2 nM

Cc1nc2cccc(NCc3ccc(CN4CCCCC4)cc3)c2c(=O)n1C1CCC(=O)NC1=O (stereo not drawn) [SIAIS313069, 3-(2-methyl-4-oxo-5-((4-(piperidin-1-ylmethyl)benzyl)amino)quinazolin-3(4H)-yl)piperidine-2,6-dione]
IC50 [2]: 21.5 ± 5.84 nM | IC50 [4]: 129 ± 18.8 nM

Cc1nc2cccc(NCc3ccc(CN4CCSCC4)cc3)c2c(=O)n1C1CCC(=O)NC1=O (stereo not drawn) [SIAIS313074, 3-(2-methyl-4-oxo-5-((4-(thiomorpholinomethyl)benzyl)amino)quinazolin-3(4H)-yl)piperidine-2,6-dione]
IC50 [2]: 10.6 ± 1.95 nM | IC50 [4]: 58.7 ± 22.4 nM | inhibition of the level of TNF-α (in words) [7]: better inhibitory activities than CC-122

Cc1nc2cccc(NCc3ccc(CN4CC(C)CC(C)C4)cc3)c2c(=O)n1C1CCC(=O)NC1=O (stereo not drawn) [SIAIS313075, 3-(5-((4-((3,5-dimethylpiperidin-1-yl)methyl)benzyl)amino)-2-methyl-4-oxoquinazolin-3(4H)-yl)piperidine-2,6-dione]
IC50 [2]: 16.4 ± 2.82 nM | IC50 [4]: 131 ± 27.6 nM

Cc1nc2cccc(NCc3ccc(CN4CCCCCC4)cc3)c2c(=O)n1C1CCC(=O)NC1=O (stereo not drawn) [SIAIS313087, 3-(5-((4-(azepan-1-ylmethyl)benzyl)amino)-2-methyl-4-oxoquinazolin-3(4H)-yl)piperidine-2,6-dione]
IC50 [2]: 4.82 ± 2.36 nM | IC50 [4]: 43.5 ± 17.9 nM | inhibition of the level of TNF-α (in words) [7]: better inhibitory activities than CC-122

Cc1nc2cccc(NCc3ccc(CNC45CC6CC(CC(C6)C4)C5)cc3F)c2c(=O)n1C1CCC(=O)NC1=O (stereo not drawn) [SIAIS355049, 3-(5-((4-((adamantan-1-ylamino)methyl)-2-fluorobenzyl)amino)-2-methyl-4-oxoquinazolin-3(4H)-yl)piperidine-2,6-dione]
IC50 [2]: 5.61 ± 2.41 nM | IC50 [4]: 82.9 ± 25.9 nM

Cc1nc2cccc(NCc3ccc(CN4CCCCCC4)cn3)c2c(=O)n1C1CCC(=O)NC1=O (stereo not drawn) [SIAIS355062, 3-(5-(((5-(azepan-1-ylmethyl)pyridin-2-yl)methyl)amino)-2-methyl-4-oxoquinazolin-3(4H)-yl)piperidine-2,6-dione]
IC50 [2]: 22.1 ± 12 nM | IC50 [4]: 105 ± 19.9 nM

Cc1nc2cccc(NCc3ccc(CNC45CC6CC(CC(C6)C4)C5)cn3)c2c(=O)n1C1CCC(=O)NC1=O (stereo not drawn) [SIAIS355068, 3-(5-(((5-(((adamantan-1-yl)amino)methyl)pyridin-2-yl)methyl)amino)-2-methyl-4-oxoquinazolin-3(4H)-yl)piperidine-2,6-dione]
IC50 [2]: 37.7 ± 12.1 nM | IC50 [4]: 139 ± 22 nM
